We go through 15 compounds from patent US20240158393A1, “PYRIDONE COMPOUNDS AND METHODS OF USE” (Exelixis, Inc., priority 2021, published 2024).

Structures can show the parent of a compound that is named as a salt.

The target in one assay is T1, Human Axl (Homo sapiens, UniProt P30530).
T1 construct: Human AXL (residues 464-885)
T1 sequence (P30530 1-894 Q764R): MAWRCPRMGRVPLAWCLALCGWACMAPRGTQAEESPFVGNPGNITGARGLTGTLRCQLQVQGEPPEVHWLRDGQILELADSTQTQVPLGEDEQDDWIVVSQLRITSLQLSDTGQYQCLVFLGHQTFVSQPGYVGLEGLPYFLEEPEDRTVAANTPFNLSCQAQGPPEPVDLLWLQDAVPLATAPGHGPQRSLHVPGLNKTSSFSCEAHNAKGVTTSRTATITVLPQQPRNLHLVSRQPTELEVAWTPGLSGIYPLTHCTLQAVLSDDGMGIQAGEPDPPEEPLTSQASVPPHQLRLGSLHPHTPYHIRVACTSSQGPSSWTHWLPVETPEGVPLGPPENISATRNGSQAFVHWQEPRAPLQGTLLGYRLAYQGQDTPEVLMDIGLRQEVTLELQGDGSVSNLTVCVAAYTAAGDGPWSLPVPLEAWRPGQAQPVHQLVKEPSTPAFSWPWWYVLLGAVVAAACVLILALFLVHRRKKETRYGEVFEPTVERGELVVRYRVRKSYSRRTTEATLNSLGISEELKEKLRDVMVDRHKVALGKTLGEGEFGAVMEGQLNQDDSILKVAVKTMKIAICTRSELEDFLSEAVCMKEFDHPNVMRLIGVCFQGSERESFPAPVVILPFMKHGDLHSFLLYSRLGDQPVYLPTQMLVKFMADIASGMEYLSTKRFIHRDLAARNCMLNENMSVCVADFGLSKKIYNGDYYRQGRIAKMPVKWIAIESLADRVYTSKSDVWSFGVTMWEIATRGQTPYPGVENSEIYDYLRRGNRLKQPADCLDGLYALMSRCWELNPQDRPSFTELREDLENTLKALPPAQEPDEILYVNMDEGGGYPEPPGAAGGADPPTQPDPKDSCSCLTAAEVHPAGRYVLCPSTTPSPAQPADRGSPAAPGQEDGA
Put plainly: Human AXL kinase assay (33P radiometric / HTRF KinEase). It is filed as biochemical. The conditions noted are these: protocols of Examples A-1 and/or A-2. As for the experimental part: Kinase activity and compound inhibition were investigated using the ^33P-Phosphoryl transfer radiometric kinase assay, performed using the KinaseProfiler™ service of Eurofins Pharma Discovery Services UK Limited. Dose-response experiments were performed using nine compound concentrations in a 96-well microtiter plate. For each assay, all compounds were prepared to a 50× final assay concentration (50 μM) in 100% DMSO, then diluted in a half-log series, with the final top concentration at 1 μM. This working stock of the compound was added to the assay well as the first component in the reaction, followed by the remaining components as detailed in the following assay protocols below. The positive control wells (100% kinase activity) contain all components of the reaction including 2% DMSO (control for solvent effects), except the compound of interest. Blank wells contain all components of the reaction, with the reference inhibitor, staurosporine. This reference compound was used to abolish kinase activity and generated the 0% kinase activity base-line. IC50 values were calculated by nonlinear regression analysis using the sigmoidal dose-response (variable slope) curve fit on XLFit version 5.3 (ID Business Solutions).
Kinase activity and compound inhibition were also investigated using the HTRF® KinEase assay (Cisbio Cat #62TKOPEB) per manufacturer's instructions. In short, compounds were delivered in 300 nL volumes at 10 different concentrations in DMSO (3% final) to empty 384-well assay plates (Corning cat #3824). A mixture of enzyme, 1 μM biotinylated peptide substrate, and buffer in 10 μL volume was added. The assay was started upon the addition of ATP (at Km). The 10 μL reaction was incubated at room temperature. The reaction was stopped upon the addition of detection buffer containing streptavidin-XL665 (5 μL) and TK antibody-Eu3+(5 μL). After a 60 min incubation at room temperature, the fluorescence at 665 nm and 620 nm was read on an Envision microplate reader (Perkin Elmer).
Kinase activity normalized to DMSO (100% activity) and reference compound at 1 μM and (0% activity) was calculated using the fluorescence ratio […]. IC50 values were calculated by nonlinear regression analysis using a 4-parameter logistic curve fit in ActivityBase XE (IDBS).
Example A-1: Human Axl (residues H473-A894 with Q764R, 161 nM) was incubated with 8 mM MOPS pH 7.0, 0.2 mM EDTA, 250 μM KKSRGDYMTMQIG (SEQ ID NO:1), 10 mM magnesium acetate and 10 μM [γ-^33P-ATP]. The reaction was initiated by the addition of the Mg/ATP mix. After incubation for 40 minutes at room temperature, the reaction was stopped by the addition of phosphoric acid to a concentration of 0.5%. A reaction aliquot of 10 μL was then spotted onto a P30 filtermat and washed four times for 4 minutes in 0.425% phosphoric acid and once in methanol prior to drying and scintillation counting. Incorporated ^33P was measured using the Wallac Microbeta scintillation counter (Perkin Elmer).
Example A-2: Human AXL (residues 464-885; CarnaBio, 1 ng/well) was also incubated with enzymatic buffer (Cisbio) supplemented with 5 mM MgCl2, 1 mM DTT, and Supplemental Enzymatic Buffer (SEB; Cisbio). The mixture was added to the pre-plated compounds. The reaction was initiated upon addition of ATP at Km (1.0 μM). The reaction was incubated at room temperature for 50 min and stopped upon the addition of SA-XL665 and TK-antibody both diluted in EDTA-containing kinase detection buffer (Cisbio). The kinase activity was calculated as stated above and the IC50 values were reported.

The next assay deals with T2, Human KDR (Homo sapiens, UniProt P35968).
T2 construct: Human KDR (residues K790-V1356, 55 nM); purchased Eurofins Pharma Discovery Services UK Limited (KinaseProfiler, B-1) and/or CarnaBio (B-2)
T2 sequence (P35968 790-1356): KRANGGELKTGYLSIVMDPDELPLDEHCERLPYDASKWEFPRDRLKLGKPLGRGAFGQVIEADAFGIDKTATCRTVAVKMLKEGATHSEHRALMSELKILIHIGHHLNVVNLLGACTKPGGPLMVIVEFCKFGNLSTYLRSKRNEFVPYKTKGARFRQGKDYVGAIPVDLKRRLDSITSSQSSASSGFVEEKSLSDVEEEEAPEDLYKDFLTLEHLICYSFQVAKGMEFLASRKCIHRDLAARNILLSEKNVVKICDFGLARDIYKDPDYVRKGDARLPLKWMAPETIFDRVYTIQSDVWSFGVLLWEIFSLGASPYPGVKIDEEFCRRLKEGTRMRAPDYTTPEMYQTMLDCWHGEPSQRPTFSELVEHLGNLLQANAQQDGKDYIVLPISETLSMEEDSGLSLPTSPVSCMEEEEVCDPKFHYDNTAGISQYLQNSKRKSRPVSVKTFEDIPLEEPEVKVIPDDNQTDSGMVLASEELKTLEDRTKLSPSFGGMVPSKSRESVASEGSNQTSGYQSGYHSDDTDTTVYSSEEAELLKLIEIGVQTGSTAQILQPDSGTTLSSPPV
Nature of the assay: Human KDR kinase assay (33P radiometric / HTRF KinEase). It counts as biochemical. As to conditions: protocols of Examples B-1 and/or B-2. Summed up:
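Radiometric: KDR K790-V1356 (55 nM), MOPS pH 7.0, myelin basic protein, 10 μM [γ-33P]ATP, 40 min at room temperature, filter-bound 33P counted; nine half-log doses, top 1 μM. HTRF: KDR 790-1356, 1 μM biotinylated peptide, ATP at Km (4.0 μM), 40 min, 10 doses. IC50 from logistic fits.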
Background: TR-FRET usually uses a lanthanide donor and a delayed reading to cut background.

As a reminder, the IC50 is the concentration needed to halve the response being measured. A higher IC50 goes with a need for much substance. Take `COc1cc2nccc(Oc3ccc(NC(=O)c4cn(C)c(C)c(C5=CCCC5)c4=O)cc3F)c2nc1OC` [Compound 1, 5-(Cyclopenten-1-yl)-N-[4-[(6,7-dimethoxy-1,5-naphthyridin-4-yl)oxy]-3-fluorophenyl]-1,6-dimethyl-4-oxopyridine-3-carboxamide]: the IC50 on Human Axl and against Human KDR was at most 100 nM throughout.
As to `COc1cc2nccc(Oc3ccc(NC(=O)c4c(C)nc(C)c(C5=CCCC5)c4O)cc3F)c2nc1OC` [Compound 1-2, 5-(Cyclopenten-1-yl)-N-[4-[(6,7-dimethoxy-1,5-naphthyridin-4-yl)oxy]-3-fluorophenyl]-4-hydroxy-2,6-dimethylpyridine-3-carboxamide hydrochloride], the IC50 at Human Axl and against Human KDR was at most 100 nM in each case.
Regarding `COc1cc2nccc(Oc3ccc(NC(=O)c4cnc(C)c(C5=CCOCC5)c4O)cc3F)c2nc1OC` [Compound 1-3, 5-(3,6-Dihydro-2H-pyran-4-yl)-N-[4-[(6,7-dimethoxy-1,5-naphthyridin-4-yl)oxy]-3-fluorophenyl]-4-hydroxy-6-methylpyridine-3-carboxamide], the IC50 against Human Axl and on Human KDR was at most 100 nM in each case.
With `COc1cnc2c(Oc3ccc(NC(=O)c4cnc(C)c(C5=CCOCC5)c4O)cc3F)ccnc2c1` [Compound 1-4, 5-(3,6-Dihydro-2H-pyran-4-yl)-N-[3-fluoro-4-[(7-methoxy-1,5-naphthyridin-4-yl)oxy]phenyl]-4-hydroxy-6-methylpyridine-3-carboxamide], the IC50 at Human Axl and on Human KDR was at most 100 nM throughout.
On to `COc1ccc2nccc(Oc3ccc(NC(=O)c4cnc(C)c(C5=CCOCC5)c4O)cc3F)c2n1` [Compound 1-5, 5-(3,6-Dihydro-2H-pyran-4-yl)-N-[3-fluoro-4-[(6-methoxy-1,5-naphthyridin-4-yl)oxy]phenyl]-4-hydroxy-6-methylpyridine-3-carboxamide], for which the IC50 against Human Axl and at Human KDR was at most 100 nM in each case.
On to `COc1ccc2nccc(Oc3ccc(NC(=O)c4cnc(C)c(C5=CCCCC5)c4O)cc3F)c2n1` [Compound 1-6, 5-(Cyclohexen-1-yl)-N-[3-fluoro-4-[(6-methoxy-1,5-naphthyridin-4-yl)oxy]phenyl]-4-hydroxy-6-methylpyridine-3-carboxamide], for which the figures for the IC50 on Human Axl and at Human KDR were at most 100 nM and 100 to 300 nM, respectively.
In the same order, the values of `COc1ccc2nccc(Oc3ccc(NC(=O)c4cnc(C)c(C5=CCCC5)c4O)cc3F)c2n1` [Compound 1-7, 5-(Cyclopenten-1-yl)-N-[3-fluoro-4-[(6-methoxy-1,5-naphthyridin-4-yl)oxy]phenyl]-4-hydroxy-6-methylpyridine-3-carboxamide] are at most 100 nM and at most 100 nM.
In the same order, the values of `COc1cnc2c(Oc3ccc(NC(=O)c4cnc(C)c(C5=CCCC5)c4O)cc3F)ccnc2c1` [Compound 1-9, 5-(Cyclopenten-1-yl)-N-[3-fluoro-4-[(7-methoxy-1,5-naphthyridin-4-yl)oxy]phenyl]-4-hydroxy-6-methylpyridine-3-carboxamide] are at most 100 nM and at most 100 nM.
Take `COc1cc2nccc(Oc3ccc(NC(=O)c4cn(C)c(C)c(C5CCCC5)c4=O)cc3F)c2nc1OC` [Compound 2, 5-Cyclopentyl-N-[4-[(6,7-dimethoxy-1,5-naphthyridin-4-yl)oxy]-3-fluorophenyl]-1,6-dimethyl-4-oxopyridine-3-carboxamide]: the IC50 on Human Axl and against Human KDR was at most 100 nM each time.
In the case of `COc1cc2nccc(Oc3ccc(NC(=O)c4c(C)nc(C)c(C5=CCCCC5)c4O)cc3F)c2nc1OC` [Compound 2-3, 5-(Cyclohexen-1-yl)-N-[4-[(6,7-dimethoxy-1,5-naphthyridin-4-yl)oxy]-3-fluorophenyl]-4-hydroxy-2,6-dimethylpyridine-3-carboxamide], the IC50 against Human Axl and at Human KDR was at most 100 nM in each case.
As for `C=C(C)c1c(C)nc(C)c(C(=O)Nc2cc(F)c(Oc3ccnc4cc(OC)c(OC)nc34)cc2F)c1O` [Compound 6, N-[4-[(6,7-Dimethoxy-1,5-naphthyridin-4-yl)oxy]-2,5-difluorophenyl]-4-hydroxy-2,6-dimethyl-5-prop-1-en-2-ylpyridine-3-carboxamide], the IC50 against Human Axl and on Human KDR was at most 100 nM throughout.
For `COc1cnc2c(Oc3ccc(NC(=O)c4cnc(C)c(C5=CCOCC5)c4O)cc3)ccnc2c1` [Compound 7, 5-(3,6-Dihydro-2H-pyran-4-yl)-4-hydroxy-N-[4-[(7-methoxy-1,5-naphthyridin-4-yl)oxy]phenyl]-6-methylpyridine-3-carboxamide], the IC50 at Human Axl and on Human KDR was at most 100 nM each time.
As for `COc1cc2nccc(Oc3ccc(NC(=O)c4cn(CCF)c(C)c(C5=CCCCC5)c4=O)cc3F)c2nc1OC` [Compound 8, 5-(Cyclohexen-1-yl)-N-[4-[(6,7-dimethoxy-1,5-naphthyridin-4-yl)oxy]-3-fluorophenyl]-1-(2-fluoroethyl)-6-methyl-4-oxopyridine-3-carboxamide], the IC50 on Human Axl and against Human KDR was at most 100 nM throughout.
As to `COc1cc2nccc(Oc3ccc(NC(=O)c4c(C)nc(C)c(C(C)C)c4O)cc3)c2nc1OC` [Compound 9, N-[4-[(6,7-Dimethoxy-1,5-naphthyridin-4-yl)oxy]phenyl]-4-hydroxy-2,6-dimethyl-5-propan-2-ylpyridine-3-carboxamide], the IC50 at Human Axl and on Human KDR was at most 100 nM throughout.
With `COc1cc2nccc(Oc3cc(F)c(NC(=O)c4c(C)nc(C)c(C(C)C)c4O)cc3F)c2nc1OC` [Compound 10, N-[4-[(6,7-Dimethoxy-1,5-naphthyridin-4-yl)oxy]-2,5-difluorophenyl]-4-hydroxy-2,6-dimethyl-5-propan-2-ylpyridine-3-carboxamide], the half-inhibitory concentration (IC50) against Human Axl and against Human KDR was at most 100 nM throughout.
